Source: US20210386705A1, “APPLICATION OF CHIGLITAZAR AND RELATED COMPOUNDS THEREOF” (SHENZHEN CHIPSCREEN BIOSCIENCES CO., LTD., priority 2018, published 2021)

Tests used:
[1] = tested on: CCl4-induced liver fibrosis; test: Mouse model of carbon tetrachloride induced liver fibrosis; type: in vivo, BALB/c mice; settings: 40, 20 and 10 mg/kg intragastrically, from the fourth week to the 7th week
Procedure: BALB/c mice were injected intraperitoneally with 25% CCl4 (4 mL/kg body weight) twice a week, which can cause liver damage and chronic liver fibrosis in 3 weeks. The model animals were administered for 6 weeks continuously, and the non-model control group was administered the solvent control olive oil for the same period. Model animals were randomly divided into groups from the third week. The control group was administered solvent (0.2% sodium methylcellulose) intragastrically from the fourth week, and the sodium chiglitazar at high, medium and low dose groups were administered 40, 20, and 10 mg/kg body weight of the active ingredient sodium chiglitazar intragastrically, respectively (Table 4), until the end of the experiment in the 7th week. […]
The liver tissue sections were stained with Picrosirius Red for morphological observation (FIG. 9), and measured by using a semi-automatic digital image analysis system and the measurement software (OsteoMetrics, Inc.). The pathologist single-blindly tested and hand-drew the entire sections, and then measured the fibrosis area on the entire sections in straight lines. The software automatically calculated the total area of the measurement. […]

[2] = tested on: connective tissue growth factor (CTGF); test: TGF-β1-activated hepatic stellate cells, CTGF gene expression (qPCR); type: cell-based, human; settings: TGF-β1 stimulation, 24 hours; FIG. 4
Procedure: Human primary hepatic stellate cells were seeded into 6-well plates with complete growth media (Stellate Cell Medium) for 24 hours, and then the culture media were replaced by fresh media (free of serum and growth factors) containing TGF-β1 and the compound to be tested (sodium chiglitazar) or the reference compound PPARγ/α dual agonist pioglitazone or PPARα/δ dual agonist GFT505 (both purchased from Selleck), and the cells were cultured for 24 hours. The total RNAs of the samples were extracted, and reverse transcription reaction was performed. Thereafter, a conventional PCR amplification kit (FastStart Universal SYBR@ Green Master (ROX), Roche) was used for further detection, where the PCR primers were designed with reference to the NCBI standard mRNA sequence of the target genes (Table 2). PCR reaction and detection were carried out on the ABI StepOnePlus real-time quantitative PCR instrument.
By calculating the relative amount of transcripts was calculate by “Delta-Delta CT method” (Livak et al. Methods 2001), and using ACTB as the housekeeping gene for normalization and the average data of untreated human hepatic stellate cells as a reference control, the relative change folds of gene expression were obtained (FIG. 4).

[3] = tested on: primary human dermal fibroblasts; test: PDGF-BB stimulated proliferation of dermal fibroblasts (MTT assay); type: cell-based; settings: MTT 72 hours, FIG. 3
Procedure: Primary human hepatic stellate cells or primary human dermal fibroblasts (HDF), both purchased from Sciencell, were seeded into 96-well plates with complete growth media (Stellate Cell Medium or Fibroblast Cell Medium) for 24 hours, followed by culturing overnight in the culture media free of serum and growth factors, and then the culture media were replaced by fresh medium containing platelet-derived growth factor (PDGF-BB) and the compounds to be tested at various concentrations, and the cells was cultured for another 72 hours. Measurement was performed using a conventional MTT assay kit (Promega). […] The inhibition of cell proliferation by the compounds was determined by comparing the absorbance value of the control group (FIGS. 2, 3).

[4] = tested on: THP-1 cells; test: Inflammatory factor gene expression (MCP-1, TNFα) in PMA-activated THP-1 cells (qPCR); type: cell-based, human; settings: 6 hours, FIG. 5
Procedure: Human acute monocytic leukemia mononuclear cell line (THP-1) cells were activated by a certain concentration of phorbol esters (Phorbol-12-myristate-13-acetate, PMA) and differentiated into macrophages. Through this cell model, the activating effects of sodium chiglitazar and other compounds on the expression of THP-1 related inflammatory factors were detected.
THP-1 cells were seeded into 6-well plates with complete growth media for 24 hours, and then the culture media were replaced by fresh media containing PMA and the compound to be tested (sodium chiglitazar) or the reference compound GFT505 (PPARα/δ dual agonist), and the cells were cultured for 6 hours. The total RNAs of the samples were extracted, and cDNA templates were synthesized by reverse transcription reaction (Transcriptor First Strand cDNA Synthesis Kit, Roche). Thereafter, a conventional PCR amplification kit (FastStart Universal SYBR@ Green Master (ROX), Roche) was used for semi-quantitative gene expression detection on the ABI StepOnePlus real-time quantitative PCR instrument.
The relative expression change of the target genes was obtained by using the internal reference β-actin gene (ACTB) as the standard for normalization, compared with the untreated cell samples, and the relative expression change folds were calculated (FIG. 5).

O=C(c1ccc(F)cc1)c1ccccc1N[C@@H](Cc1ccc(OCCn2c3ccccc3c3ccccc32)cc1)C(=O)[O-].[Na+] [sodium chiglitazar]
Inflammatory activity of liver tissues (Metavir score, H&E staining) ([1]; FIGS. 7-8): partially inhibit
Fibrosis degree of liver tissues (fibrosis area %, Picrosirius Red) ([1]; FIGS. 9-10): partially inhibit
Effect on expression of connective tissue growth factor [2]: significant and dose-dependent inhibitory effect
Inhibition of in vitro proliferation of skin-derived fibroblasts [3]: had inhibitory activity
Inhibition of phorbol esters-mediated activation of monocyte and related gene expression [4]: significantly inhibit
